# Results: patent US20060073496A1, “Methods of identifying patients at risk of developing encephalitis following immunotherapy for Alzheimer's disease” (priority 2004, published 2006)
# Several values for one entry are separate records, joined by “and”; a condition that tells them apart may be missing. Equal values may be shown once. Entries after “also recorded” stand apart in the source; their conditions may differ.
# Columns and labels:
# [1] = cited from earlier work
# PBMCs = experiment: Gene expression frequency (Affymetrix U133A) in PBMCs cultured overnight with AN1792 and immune adjuvant cocktail; association with encephalitis, IgG, IgM response, ApoE4 by ANOVA and GeneCluster; ratio to control culture; format: cell-based, human; details: 13 genes of Table 17, PBMCs cultured overnight, AN1792 10 μg/ml
# Source text: Consent to the pharmacogenomic study was optional and obtained after approval by local institutional review boards in the U.S. (E.U. patients were not included in the pharmacogenomic study). Blood was collected from patients in the U.S. at the screening visit and was shipped overnight at room temperature to the Pharmacogenomic Laboratory in Andover, Mass. For each sample, the peripheral blood mononuclear cell (PBMC) fraction was purified by CPT fractionation, as described below, and 2×10^6 of these cells (the baseline sample, i.e., the first daughter sample for baseline measurements) were snap frozen; these represent cells that were not subject to in vitro culture (see. Example 1.1.3.1). The remaining cells were divided into four equal aliquots and cultured in vitro overnight in conditions described below. Cells were then harvested and snap frozen. […] The hypothesis behind this reasoning was that immunotherapeutic responsiveness may reflect a state of “preexisting readiness” to respond to AN1792, and this state may be reflected in the gene expression profile of PBMCs prior to immunotherapy. Accordingly, both AN1792-stimulated and control cultures were set up for each sample. Total RNA was purified from each sample, and RNA expression levels of each of 22,000 sequences were assayed, as described below. […]
# [2] = Phase I human trials of AN1792 (safety, tolerability, antibody responsiveness); format: in vivo; details: Phase I study
# Source text: The U.K. trial enrolled about 80 patients and the U.S. trial enrolled about 24 patients with mild to moderate AD for the Phase I trials. […] Four of the participants developed signs of meningoencephalitis at an early phase of the clinical trial, and the trial was suspended. […] At the time the treatments were discontinued, the maximum number of immunization received was three (by 24 patients), with the majority of patients receiving two immunizations (274 patients) and two patients receiving one immunization. Ultimately, meningoencephalitis was reported in 18 of 300 immunized patients (Orgogozo (2003) supra).
# Predictors of response were sought because the incidence of antibody responsiveness in the Phase I study was relatively low (48%), an incidence that would have more than doubled the number of patients required in a Phase II evaluation of efficacy (as measured by cognitive function) associated with anti-AN1792 antibody response. […] Consequently, blood samples were obtained from 123 treated U.S. patients (five of which developed meningoencephalitis) and 30 patients in the placebo group. Simultaneous analysis of the expression levels of approximately 22,000 sequences in each preimmune blood sample obtained from all consenting subjects was performed using the Affymetrix U133A GeneChip®. […]
# PDAPP transgenic mouse = PDAPP transgenic mouse efficacy studies (titer needed to lessen neuropathological progression); format: in vivo
# Source text: At present, the anti-AN1792 titer necessary to achieve a beneficial therapeutic effect in human AD is unknown. Whereas the PDAPP (platelet-derived growth factor-driven amyloid precursor protein) transgenic mouse develops several AD-like neuropathologies, the progression of pathology in this model may very well take a more aggressive course than in human AD, as the changes occur in months and the expression levels APP/Aβ are several fold higher than in nontransgenic species.
# [3] = tested on: transgenic mouse models of cognitive impairment and amyloid plaque-associated CNS pathology; details: cited from earlier work
# [4] = Phase IIa placebo-controlled trial of AN1792 with QS-21 adjuvant: meningoencephalitis and follow-up; format: in vivo, human; details: for Meningoencephalitis patients: number of samples in pharmacogenomic study
# Source text: The U.K. trial enrolled about 80 patients and the U.S. trial enrolled about 24 patients with mild to moderate AD for the Phase I trials.
# Antibody responders were compared to placebo controls. […] Whole-trial analysis remains ongoing (Gilman, supra).
# A total of 372 patients, 172 from the U.S. and 200 from the E.U., were enrolled in the clinical trial. […] Consent was obtained after approval by local institutional review boards.
# AN1792 = experiment: Postimmunization maximum anti-AN1792 IgG and IgM titer / response group of treated patients; format: in vivo, human
# Source text: Relevant clinical data received from StatProbe, Inc. (Ann Arbor, Mich.) (pertaining to treatment group, maximum IgG titer for all visits, maximum IgM titer for all visits, ApoE4 type, and encephalitis status), along with demographic data and treatment group, were merged with the gene expression data by donor identification number (the randomization number that was assigned to each patient in the study).
# The pharmacogenomic supplemental statistical analysis plan of this Example 1 defines IgG responders as having a maximum titer≧2200 at any time point. The maximum titer of partial IgG responders was >200<2200, and of nonresponders was ≦200. Patients with an IgM titer>100 at any time point are defined as IgM responders.
# (Data from patients with maximum titers between 200 and 2200 were not used in the identification of statistically significant associations, but were analyzed once the statistical programs had identified genes of interest.)
# Relevant clinical data pertaining to treatment group, maximum IgG titer for all visits, maximum IgM titer for all visits, encephalitis status, and demographic data were received from StatProbe, Inc. (Ann Arbor, Mich.). The clinical data were merged with the gene expression data by donor identification number.
# Subjects were assigned to response groups based on postimmunization maximum titer during follow-up. For both IgM and IgG the response groups were: 1) nonresponders, (titer<200); 2) partial responders (200≦titer<2,200); and 3) responders (titer≧2200).
# [5] = cited from earlier work; remark: listed apart in the source
# [6] = rabbit, single IM injection, tritium-labeled QS-21; cited from earlier work
# [7] = tested on: B and T cell effector function; details: QS-21 adjuvanted immunotherapeutics in mice, rabbits and monkeys; cited from earlier work
# [8] = cited from earlier work; remark: listed apart in the source
# [9] = immunization with AN1792, transgenic mice
# [10] = individual AN1792-treated patients with r^2 outlier samples (33, 22, 316, 765)
# [11] = individual treated patients with post-CPT neutrophils >20%, one line per patient (17, 23, 36, 44, 271, 756), listed as Immunotherapy
# [12] = number of samples in pharmacogenomic study, Female, of 57 treated
# [13] = number of samples in pharmacogenomic study, Male, of 66 treated
# [14] = number of samples in pharmacogenomic study, Total, of 123 treated
substance,measurement,setting,value
"AN1792: a peptide immunogen consisting of Aβ1-42, the section of amyloid recognized as a major component of AD-related plaques",development of amyloid antibodies,"[1]; Phase I trials, mild to moderate AD",a portion of the participants developed amyloid antibodies
same,tolerability in human recipients,[1]; in vivo,well tolerated
same,effect of AN1792 stimulation on gene expression frequency (AN1792-stimulated versus control culture),PBMCs,decrease in gene expression frequency
same,incidence of antibody responsiveness,[2],48%
same,lowest titers that resulted in lessening of neuropathological progression,PDAPP transgenic mouse,"1-2,000"
same,cognitive function,[3]; [9],improved cognitive function
same,"development of AD-like amyloid plaques, neuritic dystrophy, and gliosis",[3]; [9],"inhibited the development of AD-like amyloid plaques, neuritic dystrophy, and gliosis"
same,performance in memory tests,[3]; mice treated with AN1792 versus placebo,improved performance in memory tests
same,number of patients who developed meningoencephalitis,[4]; E.U. patients,12
same,number of patients who developed meningoencephalitis,[4]; U.S. patients,6
same,Meningoencephalitis patients,[4]; Female,5
same,Meningoencephalitis patients,[4]; Total,5
same,IgG response group,AN1792; [10],Nonresponder (of nonresponders was ≦200); also recorded: IgG responder (IgG responders as having a maximum titer≧2200 at any time point)
same,IgM response group,AN1792; [10],IgM responder (maximum IgM titer>100 (responders)); also recorded: Nonresponder (maximum IgM titer<100 (nonresponders))
same,Maximum IgG Titer,AN1792; [11],50 (3×) and 4111 and 126 and 172
same,Maximum IgM Titer,AN1792; [11],13275 and 957 and 28554
same,Treated IgG nonresponders,AN1792; [12],28
same,Treated IgG partial responders,AN1792; [12],16
same,Treated IgG responders,AN1792; [12],13
same,Treated IgM nonresponders,AN1792; [12],16
same,Treated IgM partial responders,AN1792; [12],21
same,Treated IgG nonresponders,AN1792; [13],42
same,Treated IgG partial responders,AN1792; [13],12
same,Treated IgG responders,AN1792; [13],12
same,Treated IgM nonresponders,AN1792; [13],28
same,Treated IgM partial responders,AN1792; [13],18
same,Treated IgG nonresponders,AN1792; [14],70
same,Treated IgG partial responders,AN1792; [14],28
same,Treated IgM nonresponders,AN1792; [14],44
same,Treated IgM partial responders,AN1792; [14],39
same,Treated IgM responders,AN1792; [14],40
same,"incidence of responsiveness (IgG titer>200), patients of treated patients","AN1792; treated U.S. patients of the pharmacogenomic study, Example 2",53 of 123
same,CSF tau levels and battery of neuropsychological tests,"[5]; antibody responders compared to placebo controls, follow-up",gave results favoring patients with a positive IgG titer
same,"meningoencephalitis reported, patients of immunized patients",[5]; in vivo,18 of 300
same,β-amyloid plaques in brain at autopsy,[5]; one participant who died of causes unrelated to treatment,significant areas of the brain lacked the β-amyloid plaques
QS-21,distribution,[6],highly concentrated in the lymph nodes draining the injection area
same,excretion,[6],Excretion occurs primarily through the kidneys
same,effect on immune effector function,[7],improvement in B and T cell effector function
same,white blood cell counts and creatinine kinase,[8]; rabbit toxicity studies,Slight alterations in white blood cell counts (leukocytosis and leukopenia) and creatinine kinase
same,organ toxicity,"[8]; rabbit, single or multiple injections, QS-21 alone or combined with antigens",no significant organ toxicity
